Reference: PMC4602232, “Structural basis for recognition of Emi2 by Polo-like kinase 1 and development of peptidomimetics blocking oocyte maturation and fertilization” (Scientific Reports, 2015)
Entries after “also recorded” stand apart in the source; their conditions may differ. Non-standard residues stand in square brackets, D forms with d. No end group written: not given here. pT = C[C@@H](OP(=O)(O)O)[C@H](N)C(=O)O

Key:
[1] = test system: Emi2^1–300-mCherry reporter in MII oocytes; assay: Emi2^1–300-mCherry degradation after parthenogenetic activation (time-lapse microscopy); type: cell-based, mouse; settings: SrCl2 treatment in the presence of 100 nM BI2536; n = 3 oocytes
Description: pRN3-Emi2^1−300-mCherry plasmids containing the Plk1 recognition site and a degron for a SCF family ubiquitin ligase were constructed from synthetic Emi2^1–300 gene fragments and subcloned into the pRN3 vector as an mCherry fusion by means of Gibson Assembly[50]. The plasmids were linearized by digestion with SfiI; then cRNA was synthesized with T3 mMessage mMachine (Life Technologies). In vitro transcripts were purified by phenol-chloroform extraction and isopropyl alcohol precipitation and stored at −80 °C until use.
GV stage oocytes were injected with various peptidomimetics at 300 μM in a 50% aqueous solution (w/v) of dimethyl sulfoxide. Peptidomimetics were injected into oocyte by means of a Eppendorf Femto Jet (Eppendorf AG, Hamburg, Germany) and a Nikon Diaphot ECLIPSE TE300 inverted microscope (Nikon UK Ltd., Kingston upon Thames, Surrey, UK) equipped with a Narishige MM0-202N hydraulic three-dimensional micromanipulator (Narishige Inc., Sea Cliff, NY, USA) and subjected to in vitro maturation as described above. As a control, the BG34 reagent with threonine residues instead of phosphothreonine[35] was injected into oocytes at 300 μM. To test the oocytes for parthenogenetic activation, we collected mature MII oocytes and injected them with various reagents as described above for GV oocytes. […]

[2] = test system: bromodomain BRD4; settings: cited from earlier work
Description: On the other hand, due to the high degree of similarity among kinase domains’ ATP-binding pockets, achieving good specificity is a difficult task. […] Because PBD exists only in the Plk family (Plk1 through Plk4), targeting of this site can result in high specificity along with enhanced binding affinity; these properties may faci ...

[3] = test system: mouse oocyte maturation; settings: cited from earlier work
Description: In Xenopus and in mice, the general scheme of calcium-mediated signal transduction has been well established, but the detailed molecular mechanism has been elusive. For instance, Plk1 is involved in Emi2 phosphorylation and destabilization, but the mechanism of binding of Plk1 to Emi2 has not yet been determined. Plk1 is known to be involved in various cell cycle-related processes, and recently it received attention as a target of anticancer treatments.

[4] = biological target: T1, Mouse Plk1 Polo box domain (Plk1-PBD, amino acid residues 367-603) (mouse, UniProt Q07832 367-603); assay: ITC; phosphorylated peptide (1.2 mM) injected into Plk1-PBD (0.1 mM) in the cell; 15 °C; 20 mM Tris-Cl pH 8.0, 300 mM NaCl, 3 mM DTT; one-site binding model; settings: both partners purified
T1 construct: Polo-like kinase 1 (Plk1), mouse, polo box domain, residues 367-603; TEV site ENLYFQ/S between the His6 tag and the PBD; cleavage between Q and S should leave a Ser before residue 367 (surmised); also called polo box domain of Polo-like kinase 1; source: E. coli BL21 (DE3), purified (Ni-NTA, TEV digestion, Superdex 75 gel filtration); not shown: His6, N-terminal, cleaved
T1 sequence (Q07832 367-603): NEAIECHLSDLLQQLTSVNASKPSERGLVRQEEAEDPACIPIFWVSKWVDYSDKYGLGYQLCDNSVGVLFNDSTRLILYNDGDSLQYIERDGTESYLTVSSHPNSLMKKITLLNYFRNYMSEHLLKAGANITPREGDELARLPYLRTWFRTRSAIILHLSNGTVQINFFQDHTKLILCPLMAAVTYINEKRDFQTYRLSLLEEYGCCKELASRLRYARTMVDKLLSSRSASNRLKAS

| Molecule | decrease of Emi2-mCherry fluorescence after parthenogenetic activation (in words) [1] | binding and inhibition of BRD4 (in words) [2] | mouse oocyte maturation (in words) [3] | stoichiometry N [4] | Kd [4] [µM] |
| --- | --- | --- | --- | --- | --- |
| CC[C@@H]1C(=O)N(C)c2cnc(Nc3ccc(C(=O)NC4CCN(C)CC4)cc3OC)nc2N1C1CCCC1 [BI2536] | did not cause any reduction in fluorescence even after 100 min; also recorded: blocks Emi2 degradation after parthenogenetic activation by SrCl2 | bind and inhibit bromodomain BRD4 at nanomolar concentration | impairs mouse oocyte maturation |  |  |
| SPLVTS[pT]IKTEDVVSNSQNSRLHFSQHKTS[pT]I (peptide, UniProt Q8CDI2 146-177, looked up, Made on Rink amide resin, so probably a C-terminal amide (surmised); source: synthetic peptide (Fmoc SPPS, Rink amide resin, RP-HPLC)) [Phosphorylated Emi2 146-177 peptide (phospho-Thr152 and phospho-Thr176)] |  |  |  | 0.47 ratio of Emi2^146–177 to Plk1-PBD |  |
| FSQHKTS[pT]I-NH2 (Made on Rink amide resin, so probably a C-terminal amide (surmised); source: synthetic peptide (Fmoc SPPS, Rink amide resin, RP-HPLC)) [Phosphorylated Emi2 169-177 peptide (phospho-Thr176)] |  |  |  | 0.92 ratio of Emi2^169–177 to Plk1-PBD | 29.6 |
